# “And” between values parts separate entries of the source, which are not always exact repeats. Identical values can stand only once. “Also recorded” adds a separate entry of the source.
# Legend:
# Assay type in all cases: in vivo, Golden Syrian hamsters (Mesocricetus auratus)
# SARS-CoV-2 [1] = assay: Anti-viral experiment with Golden Syrian hamsters: viral load in lungs and trachea; details: 1 mg/kg s.c. daily from day 1; for RNA - lung / RNA - trachea / titer - lung / titer - trachea: individual hamsters; for viral load in trachea versus untreated group (in words): TCID50
# SARS-CoV-2 [2] = assay: Anti-viral experiment with Golden Syrian hamsters: histopathology scores; details: for trachea, epithelial damage (score) / bronchi, epithelial damage (score) / pulmonary parenchyma damage (score) / submucosal damage (score) / tissue repair (score) / vascular damage (score): 1 mg/kg s.c., individual hamsters; for trachea, epithelial damage (score): 0 normal, 1 mild, 2 moderate, 3 severe tracheitis; for bronchi, epithelial damage (score) / pulmonary parenchyma damage (score) / submucosal damage (score) / tissue repair (score) / vascular damage (score): sum of five lung lobes, maximum 15
# [3] = Anti-viral experiment with Golden Syrian hamsters: body weight; details: for body weight, individual data: individual animals
compound,measurement,setting,value
CCCC[C@H](NC(=O)[C@H](CC(C)C)NC(=O)OCc1ccccc1)C(O)S(=O)(=O)[O-].[Na+] (stereo partly drawn) [S-Calpeptin],RNA - lung,"SARS-CoV-2 [1]; day 3 p.i., 1 mg/kg",2.194 SARS-CoV-2 RNA copies/β actin RNA copies and 2.076 SARS-CoV-2 RNA copies/β actin RNA copies and 2.135 SARS-CoV-2 RNA copies/β actin RNA copies and 5.784 SARS-CoV-2 RNA copies/β actin RNA copies and 2.611 SARS-CoV-2 RNA copies/β actin RNA copies
same,RNA - trachea,"SARS-CoV-2 [1]; day 3 p.i., 1 mg/kg",2.441 SARS-CoV-2 RNA copies/β actin RNA copies and 1.131 SARS-CoV-2 RNA copies/β actin RNA copies and 3.086 SARS-CoV-2 RNA copies/β actin RNA copies and 1.769 SARS-CoV-2 RNA copies/β actin RNA copies and 1.594 SARS-CoV-2 RNA copies/β actin RNA copies
same,titer - lung,"SARS-CoV-2 [1]; day 3 p.i., 1 mg/kg",10.089 log TCID50/g and 9.011 log TCID50/g and 10.277 log TCID50/g and 9.5756 log TCID50/g and 8.981 log TCID50/g
same,titer - trachea,"SARS-CoV-2 [1]; day 3 p.i., 1 mg/kg",5.2099 log TCID50/g and 3.791 log TCID50/g and 5.949 log TCID50/g and 7.023 log TCID50/g and 7.625 log TCID50/g
same,RNA - lung,"SARS-CoV-2 [1]; day 5 p.i., 1 mg/kg",2.363 SARS-CoV-2 RNA copies/β actin RNA copies and 1.994 SARS-CoV-2 RNA copies/β actin RNA copies and 2.073 SARS-CoV-2 RNA copies/β actin RNA copies and 2.178 SARS-CoV-2 RNA copies/β actin RNA copies and 1.943 SARS-CoV-2 RNA copies/β actin RNA copies
same,RNA - trachea,"SARS-CoV-2 [1]; day 5 p.i., 1 mg/kg",1.729 SARS-CoV-2 RNA copies/β actin RNA copies and 2.0935 SARS-CoV-2 RNA copies/β actin RNA copies and 2.166 SARS-CoV-2 RNA copies/β actin RNA copies and 1.097 SARS-CoV-2 RNA copies/β actin RNA copies and 1.597 SARS-CoV-2 RNA copies/β actin RNA copies
same,titer - lung,"SARS-CoV-2 [1]; day 5 p.i., 1 mg/kg",7.002 log TCID50/g and 7.059 log TCID50/g and 6.976 log TCID50/g and 7.092 log TCID50/g and 6.453 log TCID50/g
same,titer - trachea,"SARS-CoV-2 [1]; day 5 p.i., 1 mg/kg",0 log TCID50/g and 2.787 log TCID50/g
same,titer - trachea,SARS-CoV-2 [1]; day 7 p.i.,0 log TCID50/g
same,RNA - lung,"SARS-CoV-2 [1]; day 7 p.i., 1 mg/kg",0.6096 SARS-CoV-2 RNA copies/β actin RNA copies and 0.8217 SARS-CoV-2 RNA copies/β actin RNA copies and 0.4837 SARS-CoV-2 RNA copies/β actin RNA copies and 0.3749 SARS-CoV-2 RNA copies/β actin RNA copies and 1.469 SARS-CoV-2 RNA copies/β actin RNA copies
same,RNA - trachea,"SARS-CoV-2 [1]; day 7 p.i., 1 mg/kg",0.3702 SARS-CoV-2 RNA copies/β actin RNA copies and -0.0169 SARS-CoV-2 RNA copies/β actin RNA copies and -0.6383 SARS-CoV-2 RNA copies/β actin RNA copies and 0.1661 SARS-CoV-2 RNA copies/β actin RNA copies and 0.09095 SARS-CoV-2 RNA copies/β actin RNA copies
same,titer - lung,"SARS-CoV-2 [1]; day 7 p.i., 1 mg/kg",0 log TCID50/g and 1.7736 log TCID50/g
same,viral load in lungs versus untreated group (in words),"SARS-CoV-2 [1]; hamsters, day 5 p.i., 1 mg/kg",lower SARS-CoV-2 titers in the treated group compared to the untreated group; also recorded: lower viral loads in their trachea and lungs
same,viral load in trachea versus untreated group (in words),"SARS-CoV-2 [1]; hamsters, day 5 p.i., 1 mg/kg",statistically significant difference on TCID50 viral load in trachea; also recorded: reduces viral load in trachea; also recorded: significant reduction of the viral load in trachea on day 5; also recorded: the decrease was only statistically significant in the trachea
same,viral load in trachea versus untreated group (in words),"SARS-CoV-2 [1]; hamsters, day 5 p.i., listed as sulfonated Calpeptin, 1 mg/kg",reduces the viral load in the trachea
same,"trachea, epithelial damage (score)","SARS-CoV-2 [2]; day 3 p.i., 1 mg/kg",0 and 1
same,"bronchi, epithelial damage (score)","SARS-CoV-2 [2]; day 3 p.i., 1 mg/kg",6 and 3 and 1 and 4
same,pulmonary parenchyma damage (score),"SARS-CoV-2 [2]; day 3 p.i., 1 mg/kg",7 and 4 and 5 and 8
same,submucosal damage (score),"SARS-CoV-2 [2]; day 3 p.i., 1 mg/kg",7 and 2 and 1 and 5
same,tissue repair (score),"SARS-CoV-2 [2]; day 3 p.i., 1 mg/kg",7 and 6 and 2 and 4
same,vascular damage (score),"SARS-CoV-2 [2]; day 3 p.i., 1 mg/kg",7 and 8 and 3 and 9
same,"trachea, epithelial damage (score)","SARS-CoV-2 [2]; day 5 p.i., 1 mg/kg",0 and 1 and 2
same,"bronchi, epithelial damage (score)",SARS-CoV-2 [2]; day 5 p.i.,2
same,pulmonary parenchyma damage (score),"SARS-CoV-2 [2]; day 5 p.i., 1 mg/kg",7 and 10 and 9
same,submucosal damage (score),"SARS-CoV-2 [2]; day 5 p.i., 1 mg/kg",8 and 11 and 9 and 10
same,tissue repair (score),"SARS-CoV-2 [2]; day 5 p.i., 1 mg/kg",6 and 8 and 9 and 10
same,vascular damage (score),"SARS-CoV-2 [2]; day 5 p.i., 1 mg/kg",10 and 9 and 11 and 13
same,"trachea, epithelial damage (score)","SARS-CoV-2 [2]; day 7 p.i., 1 mg/kg",0 and 1
same,"bronchi, epithelial damage (score)","SARS-CoV-2 [2]; day 7 p.i., 1 mg/kg",2 and 3 and 1
same,pulmonary parenchyma damage (score),"SARS-CoV-2 [2]; day 7 p.i., 1 mg/kg",8 and 7 and 10
same,submucosal damage (score),"SARS-CoV-2 [2]; day 7 p.i., 1 mg/kg",10 and 11 and 14
same,tissue repair (score),"SARS-CoV-2 [2]; day 7 p.i., 1 mg/kg",15 and 14
same,vascular damage (score),"SARS-CoV-2 [2]; day 7 p.i., 1 mg/kg",7 and 5 and 9
same,histopathology lesion scores versus untreated (in words),"SARS-CoV-2 [2]; infected hamsters, 1 mg/kg s.c. daily",no statistically significant differences in lesion scores
same,lung vascular damage scores versus untreated (in words),"SARS-CoV-2 [2]; infected hamsters, 1 mg/kg s.c. daily, days 5 and 7 p.i.","lower scores for vascular damage compared to the untreated group on days 5 and 7 p.i., these results were not statistically significant"
same,"body weight, individual data","[3]; G1 SARS-CoV-2 infected, 1 mg/kg s.c. daily, Day 1, 1 mg/kg",142 g and 136 g and 131 g and 130 g and 132 g and 133 g and 125 g and 128 g and 123 g and 114 g and 117 g and 111 g
same,"body weight, individual data","[3]; G1 SARS-CoV-2 infected, 1 mg/kg s.c. daily, Day 2, 1 mg/kg",139 g and 141 g and 136 g and 131 g and 128 g and 132 g and 123 g and 127 g and 120 g and 111 g and 116 g and 108 g
same,"body weight, individual data","[3]; G1 SARS-CoV-2 infected, 1 mg/kg s.c. daily, Day 3, 1 mg/kg",138 g and 133 g and 132 g and 125 g and 128 g and 131 g and 123 g and 122 g and 126 g and 118 g and 121 g and 111 g and 115 g and 106 g
same,"body weight, individual data","[3]; G1 SARS-CoV-2 infected, 1 mg/kg s.c. daily, Day 4, 1 mg/kg",126 g and 130 g and 121 g and 120 g and 118 g and 123 g and 111 g and 116 g and 104 g
same,"body weight, individual data","[3]; G1 SARS-CoV-2 infected, 1 mg/kg s.c. daily, Day 5, 1 mg/kg",126 g and 129 g and 121 g and 119 g and 118 g and 111 g and 117 g and 104 g
same,"body weight, individual data","[3]; G1 SARS-CoV-2 infected, 1 mg/kg s.c. daily, Day 6, 1 mg/kg",115 g and 118 g and 111 g and 116 g and 105 g
same,"body weight, individual data","[3]; G1 SARS-CoV-2 infected, 1 mg/kg s.c. daily, Day 7, 1 mg/kg",117 g and 121 g and 112 g and 118 g and 106 g
same,"body weight, individual data","[3]; G4 mock infected (so in the source), Day 1",155 g and 138 g and 130 g
same,"body weight, individual data","[3]; G4 mock infected (so in the source), Day 2",156 g and 137 g and 130 g
same,"body weight, individual data","[3]; G4 mock infected (so in the source), Day 3",157 g and 138 g and 131 g
same,"body weight, individual data","[3]; G4 mock infected (so in the source), Day 4",158 g and 140 g and 130 g
same,"body weight, individual data","[3]; G4 mock infected (so in the source), Day 5",159 g and 139 g and 131 g
same,"body weight, individual data","[3]; G4 mock infected (so in the source), Day 6",160 g and 139 g and 130 g
same,"body weight, individual data","[3]; G4 mock infected (so in the source), Day 7",162 g and 141 g and 131 g
same,"body weight, average","[3]; SARS-CoV-2 infected hamsters, 1 mg/kg s.c. daily, day 1","96.7382 %, relative to day 0"
same,"body weight, average","[3]; SARS-CoV-2 infected hamsters, 1 mg/kg s.c. daily, day 2","95.2969 %, relative to day 0"
same,"body weight, average","[3]; SARS-CoV-2 infected hamsters, 1 mg/kg s.c. daily, day 3","94.3407 %, relative to day 0"
same,"body weight, average","[3]; SARS-CoV-2 infected hamsters, 1 mg/kg s.c. daily, day 4","93.4383 %, relative to day 0"
same,"body weight, average","[3]; SARS-CoV-2 infected hamsters, 1 mg/kg s.c. daily, day 5","93.2155 %, relative to day 0"
same,"body weight, average","[3]; SARS-CoV-2 infected hamsters, 1 mg/kg s.c. daily, day 6","93.1372 %, relative to day 0"
same,"body weight, average","[3]; SARS-CoV-2 infected hamsters, 1 mg/kg s.c. daily, day 7","94.5983 %, relative to day 0"
same,"body weight, average","[3]; mock infected hamsters, 1 mg/kg s.c. daily, day 1","97.4975 %, relative to day 0"
same,"body weight, average","[3]; mock infected hamsters, 1 mg/kg s.c. daily, day 2","98.3232 %, relative to day 0"
same,"body weight, average","[3]; mock infected hamsters, 1 mg/kg s.c. daily, day 3","98.7966 %, relative to day 0"
same,"body weight, average","[3]; mock infected hamsters, 1 mg/kg s.c. daily, day 4","99.2826 %, relative to day 0"
same,"body weight, average","[3]; mock infected hamsters, 1 mg/kg s.c. daily, day 5","100.017 %, relative to day 0"
same,"body weight, average","[3]; mock infected hamsters, 1 mg/kg s.c. daily, day 6","100.959 %, relative to day 0"
same,"body weight, average","[3]; mock infected hamsters, 1 mg/kg s.c. daily, day 7","101.896 %, relative to day 0"

# From article PMC10584882 (Communications Biology, 2023)
